Data reported in patent publication US12559454B2, “Benzenesulfonamide derivatives and uses thereof” (2692372 Ontario, Inc., priority 2019, dated 2026).

Legend:
BTK [1] = molecular target: T1, BTK (Homo sapiens, UniProt Q06187); assay: In vitro BTK inhibition (no preincubation); format: biochemical; settings: Table 17
BTK [2] = molecular target: T1, BTK; assay: BTK irreversible inhibition, enzyme kinetic analysis; format: biochemical; settings: 0.1 nM BTK, 500 μM ATP
Experimental: One of ordinary skill in the art will recognize that this is consistent with the irreversible inhibition of BTK by compound I-A1.
One of ordinary skill in the art will recognize that this is consistent with the irreversible inhibition of BTK by compound I-A6.
One of ordinary skill in the art will recognize that this is consistent with the irreversible inhibition of BTK by compound 3A-2.
The shift of IC50 to a lower value after pre-incubation of the enzyme indicates to one of ordinary skill in the art that a significant portion of the enzyme was inhibited irreversibly during the incubation period.

MV4-11 cells = assay: CellTiter-Blue cell viability, MV-4-11; format: cell-based; settings: Homo sapiens, 72 hrs exposure
Experimental: (§1) Anti-cancer efficacy of exemplary compounds of this application was assessed in vitro in different cancer cell lines. Cell viability was examined following treatment at various concentration of inhibitor (0.097656-50 μM) using a cell Titer-Blue cell viability assay. 1×10^4 cells (NHF, MV4-11, K562 and MOLM-13 cells)/well were plated in 96-well assay plates in culture medium. All cells were grown in DMEM, IMDM and RPMI-1640 supplemented with 10% FBS. After 24 hrs, test compounds and vehicle controls were added to appropriate wells so the final volume was 100 μl in each well. The cells were cultured for the desired test exposure period (72 hrs) at 37° C. and 5% CO2. The assay plates were removed from 37° C. incubator and 20 μl/well of CellTiter-Blue® Reagent was added. The plates were incubated using standard cell culture conditions for 1-4 hours and the plates were shaken for 10 seconds and record fluorescence at 560/590 nm.

MOLM-13 cells = assay: CellTiter-Blue cell viability, MOLM-13; format: cell-based; settings: Homo sapiens, 72 hrs exposure
Experimental: as §1

K562 cells = assay: CellTiter-Blue cell viability, K562; format: cell-based; settings: Homo sapiens, 72 hrs exposure
Experimental: as §1

tubulin = assay: Tubulin polymerization assay; format: biochemical; settings: for % Inhibition: Vmax normalized to tubulin only control; for % D.O.P.: degree of polymerization relative to tubulin control
Experimental: A96-well half-area clear flat-bottom microplate (Corning® #3697) was pre-heated in a plate reader (Cytation 3, BioTek) at 37° C. for 15 minutes prior to the start of each assay. Tubulin polymerization buffer (80 mM PIPES pH 6.9, 2 mM MgCl2, 0.5 mM EGTA, 15% glycerol, 1 mM GTP) was prepared from stock solutions and placed on ice. Inhibitors were prepared to M concentrations in buffer (80 mM PIPES pH 6.9, 2 mM MgCl2, 0.5 mM EGTA, 5% DMSO) from DMSO stock solutions. After the assay plate was pre-warmed, 10 μL of inhibitor or buffer control was added to selected wells. Every assay contained a tubulin only negative control for normalization of data, and a batabulin positive control. The assay plate was incubated at 37° C. for 3 minutes. During this time, a frozen aliquot of tubulin (10 mg/mL) in buffer (80 mM PIPES pH 6.9, 2 mM MgCl2, 0.5 mM EGTA) was defrosted by placing in a room temperature water bath. Once thawed, 200 μL of tubulin was mixed with 420 μL ice cold tubulin polymerization buffer (3 mg/mL tubulin in 80 mM PIPES, pH 6.9, 2 mM MgCl2, 0.5 mM EGTA, 1 mM GTP, 10.2% glycerol). To a 96-well plate on ice, aliquots of 100 μL tubulin was added to each well. From this plate, 90 μL of tubulin was immediately pipetted into all sample wells of the warmed assay plate using a multi-channel pipette. The assay plate was immediately put in the reader at 37° C. and shook for 5 s with orbital shaking at medium speed. The reader recorded the absorbance at 340 nm every 15 s for 30 min.
The resulting absorbance curves were normalized by subtracting each data point by the absorbance at time 0.
The largest change in absorbance over the assay time course was also recorded and related to the tubulin control as the % degree of polymerization (% D.O.P.).

[3] = molecular target: T2, His-tagged BTK kinase domain (Homo sapiens, UniProt Q06187); assay: Mass spectral analysis of tryptic digest of BTK kinase domain; format: binding; settings: 10 μM BTK KD, 10 μM compound, 45 min; tryptic peptide 467-487
T2 construct: Intact His-tagged BTK kinase domain (SOURCE)(10 μM) was incubated
T2 sequence (Q06187 402-655 limits assumed): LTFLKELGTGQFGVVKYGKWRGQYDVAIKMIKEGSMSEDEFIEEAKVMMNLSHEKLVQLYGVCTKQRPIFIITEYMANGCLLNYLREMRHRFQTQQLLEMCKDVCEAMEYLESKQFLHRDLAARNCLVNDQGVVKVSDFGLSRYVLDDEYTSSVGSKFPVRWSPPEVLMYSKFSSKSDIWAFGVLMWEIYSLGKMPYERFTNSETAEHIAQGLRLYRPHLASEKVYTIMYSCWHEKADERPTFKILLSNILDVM
Experimental: A protein kinase that is inhibited by compound and/or pharmaceutically acceptable salt of the present disclosure may be subjected to mass spectral analysis to assess the formation of permanent, irreversible covalent adducts. […] Such methods identify permanent, irreversible covalent protein adducts by observing a mass peak that corresponds to the mass of a control sample plus the mass of an irreversible adduct.
After the incubation time, the reactions were quenched by acetone precipitation and the pellet was re-dissolved in 8 M Urea. […] The BTK protein band was then excised and subjected to an in-gel trypsin digest by reducing the protein (5 mM DTT), alkylating the thiols with iodoacetamide (15 mM), and then incubating the protein gel band with trypsin in a 37 C water bath (4 hours). The tryptic digestion was then quenched by the addition of trifluoroacetic acid, and peptides were removed from the gel band by sonicating with increasing amounts of acetonitrile (0%, 30%, & 60%). Peptides were then purified using C18 ziptips, spotted on the MALDI target plate with α-cyano-4-hydroxycinnamic acid as the desorption matrix (10 mg/mL in 0.10% TFA:Acetonitrile 50:50), and analyzed in reflectron mode.

T1 sequence (Q06187 whole entry, species assumed): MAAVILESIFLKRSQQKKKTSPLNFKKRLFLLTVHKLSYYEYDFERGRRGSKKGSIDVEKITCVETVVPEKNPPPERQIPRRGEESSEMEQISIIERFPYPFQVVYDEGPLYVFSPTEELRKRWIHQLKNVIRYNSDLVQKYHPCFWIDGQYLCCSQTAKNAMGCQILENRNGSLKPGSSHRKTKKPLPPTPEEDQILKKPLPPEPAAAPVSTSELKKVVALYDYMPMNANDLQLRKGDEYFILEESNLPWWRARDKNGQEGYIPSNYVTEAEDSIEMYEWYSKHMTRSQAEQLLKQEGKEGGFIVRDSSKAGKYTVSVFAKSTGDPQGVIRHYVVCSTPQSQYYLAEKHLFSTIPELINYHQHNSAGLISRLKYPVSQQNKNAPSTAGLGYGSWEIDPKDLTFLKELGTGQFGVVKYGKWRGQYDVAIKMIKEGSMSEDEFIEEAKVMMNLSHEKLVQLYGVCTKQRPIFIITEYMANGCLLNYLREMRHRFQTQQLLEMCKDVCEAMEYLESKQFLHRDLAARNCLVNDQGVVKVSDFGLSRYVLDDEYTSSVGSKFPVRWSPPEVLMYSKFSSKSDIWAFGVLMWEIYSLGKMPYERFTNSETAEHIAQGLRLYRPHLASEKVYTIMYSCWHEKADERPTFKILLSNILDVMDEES

IC50 (BTK [1]) [nM]	inhibition profile by enzyme kinetic analysis (BTK [2])	kinact (BTK [2]; saturation kinetics) [s⁻¹]	Ki (BTK [2]; saturation kinetics of irreversible inhibition) [nM]	IC50 (MV4-11 cells) [nM]	IC50 (MOLM-13 cells) [nM]	IC50 (K562 cells) [nM]	C481 covalent modification [3]	SMILES	% Inhibition (tubulin)	% D.O.P. (tubulin)
100 to 1000	time-dependent inhibition	0.00169	120	–	–	–	–	Nc1ncnc2c1c(-c1ccc(Oc3ccccc3)cc1)nn2[C@@H]1CCCN(S(=O)(=O)c2c(F)c(F)c(F)c(F)c2OCC(F)(F)F)C1 [Compound 3A-2, (R)-3-(4-phenoxyphenyl)-1-(1-((2,3,4,5-tetrafluoro-6-(2,2,2 trifluoroethoxy)phenyl)sulfonyl)piperidin-3-yl)-1H-pyrazolo[3,4-d]pyrimidin-4-amine]	–	–
–	–	–	–	100 to 1000	100 to 1000	100 to 1000	–	COc1ccc(NS(=O)(=O)c2c(F)c(F)c(F)c(F)c2OC(C)C)cc1F [Compound I-61, 2,3,4,5-tetrafluoro-N-(3-fluoro-4-methoxyphenyl)-6-isopropoxybenzenesulfonamide]	A (<10%)	A (>85%)
–	–	–	–	1000 to 10000	1000 to 10000	> 10000	–	CN(C)S(=O)(=O)c1c(F)c(F)c(F)c(F)c1F [Compound I-1, 2,3,4,5,6-pentafluoro-N,N-dimethylbenzenesulfonamide]	A (<10%)	A (>85%)
–	–	–	–	> 10000	> 10000	> 10000	–	COc1ccc(NS(=O)(=O)c2c(F)c(F)c(F)c(F)c2OCC(C)(C)C)cc1F [Compound I-74, 2,3,4,5-tetrafluoro-N-(3-fluoro-4-methoxyphenyl)-6-(neopentyloxy)benzenesulfonamide]	A (<10%)	A (>85%)
0.1 to 10	–	–	–	–	–	–	–	Nc1ncnc2c1c(-c1ccc(Oc3ccccc3)cc1)nn2CCCNS(=O)(=O)c1c(F)c(F)c(F)c(F)c1F [Compound 3A-10, N-(3-(4-amino-3-(4-phenoxyphenyl)-1H-pyrazolo[3,4-d]pyrimidin-1-yl)propyl)-2,3,4,5,6-pentafluorobenzenesulfonamide]	–	–
–	–	–	–	–	–	–	covalent modification and ✓	Nc1ncnc2c1c(-c1ccc(Oc3ccccc3)cc1)nn2[C@@H]1CCN(S(=O)(=O)c2cc(F)c(F)c(F)c2F)C1 [Compound 3A-4, 3-(4-phenoxyphenyl)-1-[(3R)-1-(2,3,4,5-tetrafluorophenyl)sulfonylpyrrolidin-3-yl]pyrazolo[3,4-d]pyrimidin-4-amine]	–	–
0.1 to 10	–	–	–	–	–	–	–	Nc1ncnc2c1c(-c1ccc(Oc3ccccc3)cc1)nn2C1CN(S(=O)(=O)c2c(F)c(F)c(F)c(F)c2F)C1 [Compound 3A-24, 1-(1-((perfluorophenyl)sulfonyl)azetidin-3-yl)-3-(4-phenoxyphenyl)-1H-pyrazolo[3,4-d]pyrimidin-4-amine]	–	–
–	–	–	–	> 10000	> 10000	> 10000	–	COc1ccc(NS(=O)(=O)c2c(F)c(F)c(F)c(F)c2OCc2ccccc2)cc1F [Compound I-62, 2-(benzyloxy)-3,4,5,6-tetrafluoro-N-(3-fluoro-4-methoxyphenyl)benzenesulfonamide]	A (<10%)	–
–	–	–	–	1000 to 10000	> 10000	> 10000	–	COc1ccc(NS(=O)(=O)c2c(F)c(F)c(F)c(F)c2Oc2ccc(O)cc2)cc1F [Compound I-77, 2,3,4,5-tetrafluoro-N-(3-fluoro-4-methoxyphenyl)-6-(4-hydroxyphenoxy)benzenesulfonamide]	A (<10%)	A (>85%)
–	–	–	–	–	–	–	covalent modification and ✓	COCCOc1ccc(Nc2ncc(F)c(NCCNS(=O)(=O)c3c(F)c(F)c(F)c(F)c3F)n2)cc1 [Compound 3A-37, 2,3,4,5,6-pentafluoro-N-(2-((5-fluoro-2-((4-(2-methoxyethoxy)phenyl)amino)pyrimidin-4-yl)amino)ethyl)benzenesulfonamide]	–	–
–	–	–	–	100 to 1000	100 to 1000	100 to 1000	–	COc1ccc(NS(=O)(=O)c2c(F)c(F)c(F)c(F)c2OCC(F)F)cc1F [Compound I-67, 2-(2,2-difluoroethoxy)-3,4,5,6-tetrafluoro-N-(3-fluoro-4-methoxyphenyl)benzenesulfonamide]	C (>20%)	B (< 85%)
–	–	–	–	100 to 1000	> 10000	> 10000	–	COc1ccc(NS(=O)(=O)c2c(F)c(F)c(F)c(F)c2OC2COC2)cc1F [Compound I-72, 2,3,4,5-tetrafluoro-N-(3-fluoro-4-methoxyphenyl)-6-(oxetan-3-yloxy)benzenesulfonamide]	A (<10%)	A (>85%)
–	–	–	–	1000 to 10000	1000 to 10000	> 10000	–	COc1ccc(Oc2c(F)c(F)c(F)c(F)c2S(=O)(=O)Nc2ccc(OC)c(F)c2)cc1 [Compound I-79, 2,3,4,5-tetrafluoro-N-(3-fluoro-4-methoxyphenyl)-6-(4-methoxyphenoxy)benzenesulfonamide]	A (<10%)	A (>85%)
–	–	–	–	1000 to 10000	> 10000	1000 to 10000	–	COc1ccc(NS(=O)(=O)c2c(F)c(F)c(F)c(F)c2OCC2CC2)cc1F [Compound I-71, 2-(cyclopropylmethoxy)-3,4,5,6-tetrafluoro-N-(3-fluoro-4-methoxyphenyl)benzenesulfonamide]	A (<10%)	A (>85%)
–	–	–	–	1000 to 10000	1000 to 10000	1000 to 10000	–	COc1ccc(NS(=O)(=O)c2c(F)c(F)c(F)c(F)c2Oc2ccc(OC)c(F)c2)cc1F [Compound I-78, 2,3,4,5-tetrafluoro-6-(3-fluoro-4-methoxyphenoxy)-N-(3-fluoro-4-methoxyphenyl)benzenesulfonamide]	B (10-20%)	B (< 85%)
–	–	–	–	100 to 1000	1000 to 10000	100 to 1000	–	COc1ccc(NS(=O)(=O)c2c(F)c(F)c(F)c(F)c2OCC(F)(F)F)cc1F [Compound I-68, 2,3,4,5-tetrafluoro-N-(3-fluoro-4-methoxyphenyl)-6-(2,2,2-trifluoroethoxy)benzenesulfonamide]	B (10-20%)	B (< 85%)
–	–	–	–	1000 to 10000	1000 to 10000	> 10000	–	COc1ccc(NS(=O)(=O)c2c(F)c(F)c(F)c(F)c2C(=O)C(F)(F)F)cc1F [Compound I-90, 2,3,4,5-tetrafluoro-N-(3-fluoro-4-methoxyphenyl)-6-(2,2,2-trifluoroacetyl)benzenesulfonamide]	A (<10%)	A (>85%)
